This note sets out measurements from patent US20220088115A1, “PHARMACEUTICAL COMPOSITION, COMPRISING INHIBITORY PEPTIDE AGAINST FAS SIGNALING, FOR PREVENTION OR TREATMENT OF OBESITY, FATTY LIVER, OR STEATOHEPATITIS” (SIGNET BIOTECH INC., priority 2018, published 2022).

Some results are limits rather than exact numbers.

The target in one series is T1, Fas (Homo sapiens, UniProt P25445).
T1 construct: A Jurkat cell line, in which Fas is always expressed; host or cells: Jurkat
T1 sequence (P25445 26-335): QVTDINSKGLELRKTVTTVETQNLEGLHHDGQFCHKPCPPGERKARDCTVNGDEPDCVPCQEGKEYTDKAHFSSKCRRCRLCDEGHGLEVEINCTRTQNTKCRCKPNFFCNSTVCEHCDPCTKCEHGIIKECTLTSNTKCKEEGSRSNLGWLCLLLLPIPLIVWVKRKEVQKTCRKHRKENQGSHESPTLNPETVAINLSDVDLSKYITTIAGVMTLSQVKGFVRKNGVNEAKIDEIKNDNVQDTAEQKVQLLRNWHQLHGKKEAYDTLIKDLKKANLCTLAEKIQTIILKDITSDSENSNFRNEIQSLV
Put plainly: Binding of Alexa647-labeled peptides to Fas-expressing Jurkat cell line. As to conditions: Jurkat cell line always expressing Fas; Alexa647-labeled peptide. The method, then: A Jurkat cell line which is a human blood cancer cell line and a 3T3L1 cell line which is a murine adipocyte were purchased from ATCC (USA), and the Jurkat cell line was cultured in an RPMI culture medium containing 10% fetal bovine serum (FBS), 1% penicillin, 1% streptomycin, and 25 mM glucose.
A Jurkat cell line, in which Fas is always expressed, was treated with an FITC-labeled Fas antibody and treated with Alexa647-labeled FBP-8, FBP-A, FBP-7 or control peptide (YCNSTVCY; CtrFBP).

The next series deals with 3T3L1 cell line. The series is described as follows: Expression of inflammation-related genes in 3T3L1 cell line treated with FasL and peptide. The class given is cell-based, murine. As to conditions: differentiated 3T3L1 treated with Fas ligand and FBP-8 in combination. The method, then: The 3T3L1 cell line was cultured in a DMEM culture medium containing 10% FBS, 1% penicillin, 1% streptomycin, and 25 mM glucose. The 3T3L1 cell line was aliquoted into the above DMEM culture solution at a concentration of 2×10^5 cells/ml to induce adipocyte maturation for 3 days, and then replaced with a culture solution containing insulin to induce adipocyte maturation again for 3 days. Thereafter, the 3T3L1 cell line was further cultured in the above DMEM culture solution for 2 days to achieve complete maturation of adipocytes.
(§1) mRNA was extracted from liver tissues and white adipose tissues using RNAiso (Takara, Japan), and cDNA was synthesized with an iscript cDNA synthesis kit (Bio-Rad Laboratories, USA). Thereafter, a gene expression level was analyzed by the 7500 Fast Real-time PCR system (Applied Biosystems, USA). The expression level of each gene was normalized with the expression level of a GAPDH gene, and then calculated as a relative gene expression level with respect to the control.

Series [1] is described as follows: Delivery of fluorescently labeled peptide to organs of normal body weight mice. The class given is in vivo. As to conditions: intravenous (IV) or subcutaneous (SC) injection, 12 hours.
Series [2] deals with obesity model mice. The series is described as follows: Gene expression in white adipose and liver tissues, obesity model mice, intravenous FBP-8. The series is classed as in vivo, C57BL/6 mice. As for the experimental part:
(§2) All animal experiments performed for the present invention were approved by the Institutional Animal Care and Use Committee of Hanyang University. […] Thereafter, depending on the experimental group, 60 μg/one time of FBP8 were administered by intravenous injection twice a week for a total of 5 weeks (FIG. 13), or FBP7 was administered by subcutaneous injection twice a day.
as §1
(§3) Obesity model mice were produced by feeding normal mice a high fat diet for 8 weeks, and FBP-8 was administered by intravenous injection twice a week for a total of 5 weeks (FIG. 13). After five weeks, the obesity model mice were sacrificed to isolate white adipose tissues and liver tissues and analyze the proportion of dead cells by TUNEL staining.

Series [3] deals with obesity model mice. Put plainly: Pro-inflammatory cytokines in blood, obesity model mice, intravenous FBP-8. The class given is in vivo, C57BL/6 mice. As for the experimental part:
as §2
(§4) The cytokine levels of serum and tissues were analyzed with an ELISA kit (eBioscience, USA), and the triglyceride levels of liver tissues were confirmed with a triglyceride assay kit (Cayman, USA).

For series [4], the system named is obesity model mice. Put plainly: Glucose tolerance test (GTT) and insulin tolerance test (ITT), obesity model mice, intravenous FBP-8. The class given is in vivo, C57BL/6 mice. The method, then:
as §2
For a glucose intolerance analysis, a dose of 2 g/kg of glucose was injected by intraperitoneal injection into each experimental group maintained in a fasting state for 12 hours, and blood glucose levels were measured after 30, 60 and 120 minutes by Accu-check (Roche, USA).
Insulin resistance was analyzed by measuring blood glucose levels 30 minutes, 60 minutes and 120 minutes after a dose of 0.75 U/kg of insulin was injected by intraperitoneal injection into each experimental group maintained in a fasting state for 4 hours.

Series [5] concerns obesity model mice. The series is described as follows: Daily food intake and body weight change, obesity model mice, intravenous FBP-8. The series is classed as in vivo, C57BL/6 mice. The method, then:
as §2, §3

Series [6] has as its system obesity model mice. Put plainly: Blood fatty acid, insulin, triglyceride, ALT and liver triglyceride, obesity model mice, intravenous FBP-8. The class given is in vivo, C57BL/6 mice. As for the experimental part: as §2, §4
[7] abbreviates: compared to negative control (CtrFBP).

Turning to “YCDEHFCY (Fas binding peptide-8 (FBP-8))”, the “binding to Jurkat cells (Alexa647 signal)” value in the series with Fas is recorded as “bound to Jurkat cells at similar levels”. Also, the “expressions of inflammation-related genes Fas, TNF-α, MCP-1, F4/80, IL-6 and iNOS” value in the series on 3T3L1 cell line is “remarkably reduced”. Besides, in series [1], the “fluorescence signal in the liver tissue of normal mice” value was “a significant fluorescence signal could not be observed”. For the same sequence, the “expression level of CD206 (anti-inflammatory macrophage marker) in liver tissues” value with obesity model mice [2] is listed as “no significant change”. Also, in the series on obesity model mice [2] (setting [7]), the “expression levels of F480 and CD11c (pro-inflammatory macrophage markers) in white adipose tissue” value is given as “significantly reduced”; the “expression levels of F480 and CD11c in liver tissues” value is recorded as “decreased”; the “expression levels of inflammation-related genes Fas, TNF-α, MCP-1 and IL-6 in liver tissues” value is “significantly reduced”; the “expression of inflammation-related genes Fas, TNF-α, MCP-1 and IL-6 in white adipose tissues” value was “reduced”. In the series on obesity model mice [2] (setting [7]), the “reduction of stearoyl-CoA desaturase (SCD-1) expression level in liver tissues” value is “about 30+5.32%”. Further, in the series on obesity model mice [3], the “concentrations of IL-6 and MCP-1 in blood” value was “decrease”. Further, the “blood glucose changes / glucose metabolism in GTT and ITT” value in the series on obesity model mice [4] is given as “improved glucose metabolism”. In the series with obesity model mice [5], the daily food intake result is recorded as “no significant change”. Besides, the body weight gain result with obesity model mice [5] (setting [7]) is reported as “slower”. For the same sequence, in the series on obesity model mice [6], the “reduction of triglyceride (TG) concentration in blood” value was “about 25%” and the “reduction of triglyceride (TG) concentration in the liver tissue” value is “about 50%”. In the series on obesity model mice [6] (setting [7]), the “decrease of fatty acid concentration in blood” value is recorded as “about 20%”, the “decrease of insulin concentration in blood” value is listed as “about 20%” and the “reduction of blood alanine aminotransferase (ALT) level” value is on record as ≥ 30%.
